Test results taken from patent publication US20090292124A1, “Therapeutic Agent for Nausea and/or Vomiting” (TORAY INDUSTRIES, INC. a corporation of Japan, priority 2005, published 2009).
Marks after values point to notes of the source that are not given here.

Tests used:
Type in all cases: in vivo
[1] = Test of brain penetration (Reference Example 1, intravenous); conditions: rat, Jcl-SD male rats, non-fasting, 0.5 mg/kg intravenously, brain and plasma 15 minutes after administration, n=2
Experimental: Jcl-SD male rats of 7 weeks of age
The test compound in an amount of 1.0 mg was dissolved in 0.8 mL of N,N-dimethylacetamide, and 0.8 mL of propylene glycol was added thereto.
(§1) The test compound was intravenously administered to non-fasting rats (0.5 mg/0.8 mL/kg, n=2) through the tail vein, and total blood was collected from the lower aorta 15 minutes after the administration. An aliquot of the blood was centrifuged (3000 rpm, 10 minutes, 4° C.), and the concentration of unchanged compound in the obtained blood plasma was measured by LC/MS/MS method.
(§2) After the above-described collection of the total blood, the brain was enucleated from each rat, and homogenized to prepare a 25% homogenate, followed by measurement of the concentration of unchanged compound by LC/MS/MS method.
From the obtained concentrations, Kp values were determined. As a result, the Kp value of NIT was 1.30.

ferrets = assay: Influence on nausea and vomiting induced by morphine; conditions: test substance 5 mg/kg 30 min before morphine 0.6 mg/kg s.c.; for Appearance Frequency / Duration / Latent Time: mean ± standard error; for Latent Time: no symptom counted as 30 min; for Number of Individuals Presenting Symptoms (Number of Individuals Presenting Symptoms/Number of Cases): observed 30 min
Experimental: About 30 minutes after feeding, ferrets were transferred to observation cages, and the test substances were administered, respectively. Each test substance was dissolved in 5% xylitol, and administered at a dose of 5 mg/kg. Thirty minutes after administration of the test solution, 0.6 mg/kg of morphine was subcutaneously administered at a volume of 1 mL/kg, and the symptoms of vomiting were visually observed until 30 minutes after the administration of morphine.
The appearance frequency, latent time (the time from the administration of morphine to the first appearance of the symptom) and duration (the time from the first vomiting to the final vomiting) of nausea (rhythmical contractile motion of abdomen), of vomiting (vomiting behavior excreting vomit or analogous behavior thereof) and of the total of nausea and vomiting were counted, respectively.

[2] = Test of brain penetration (Test Example 2, oral); conditions: rat, Crj:CD(SD)IGS male rats, non-fasting, 30 mg/kg orally, brain and plasma 2 hours after administration, n=3
Experimental: Crj:CD(SD)IGS male rats of 7-8 weeks of age
Each of the test compounds in an amount of 90 mg was suspended in 0.5% methylcellulose 1500 cp to a total volume of 6 mL.
as §1, with “Each” for “The”, “orally” for “intravenously”, “(30 mg/2” for “(0.5 mg/0.8”, “n=3),” for “n=2) through the tail vein,”, “2 hours” for “15 minutes”
as §2
From the obtained concentrations, Kp values were determined.

Oc1ccc2c3c1O[C@H]1c4[nH]c5ccccc5c4C[C@@]4(O)[C@@H](C2)N(CC2CC2)CC[C@]314 [NIT, naltrindole] showed a Kp at 0.25 h [1] of 1.3.

In the case of Cn1c2c(c3ccccc31)C[C@@]1(O)[C@H]3Cc4ccc(O)c5c4[C@@]1(CCN3CC1CC1)[C@H]2O5 [Compound 1], the “Appearance Frequency” value (ferrets; Nausea + Vomiting) is reported as 0 ± 0, the Duration (ferrets; Nausea + Vomiting) is reported as 0 ± 0 min and the “Latent Time” value (ferrets; Nausea + Vomiting) is reported as 30 ± 0 min. The “Number of Individuals Presenting Symptoms (Number of Individuals Presenting Symptoms/Number of Cases)” value (ferrets; Nausea + Vomiting) was 0/6##, the “Appearance Frequency” value (ferrets; Nausea) was 0 ± 0 and the Duration (ferrets; Nausea) was 0 ± 0 min. For the same compound, the “Latent Time” value (ferrets; Nausea) was 30 ± 0 min, the “Number of Individuals Presenting Symptoms (Number of Individuals Presenting Symptoms/Number of Cases)” value (ferrets; Nausea) was 0/6## and the “Appearance Frequency” value (ferrets; Vomiting) was 0 ± 0. For the same compound, the Duration (ferrets; Vomiting) was 0 ± 0 min, the “Latent Time” value (ferrets; Vomiting) was 30 ± 0 min and the “Number of Individuals Presenting Symptoms (Number of Individuals Presenting Symptoms/Number of Cases)” value (ferrets; Vomiting) was 0/6.

For CCOC(=O)c1ccc2c3c([nH]c2c1)[C@@H]1Oc2c(O)ccc4c2[C@@]12CCN(CC1CC1)[C@H](C4)[C@]2(O)C3 [Compound 2], the Kp at 2 h [2] was 0.18, the “Appearance Frequency” value (ferrets; Nausea + Vomiting) was 0 ± 0 and the Duration (ferrets; Nausea + Vomiting) was 0 ± 0 min. The “Latent Time” value (ferrets; Nausea + Vomiting) was 30 ± 0 min, the “Number of Individuals Presenting Symptoms (Number of Individuals Presenting Symptoms/Number of Cases)” value (ferrets; Nausea + Vomiting) was 0/6## and the “Appearance Frequency” value (ferrets; Nausea) was 0 ± 0. The Duration (ferrets; Nausea) was 0 ± 0 min, the “Latent Time” value (ferrets; Nausea) was 30 ± 0 min and the “Number of Individuals Presenting Symptoms (Number of Individuals Presenting Symptoms/Number of Cases)” value (ferrets; Nausea) was 0/6##. The “Appearance Frequency” value (ferrets; Vomiting) was 0 ± 0, the Duration (ferrets; Vomiting) was 0 ± 0 min and the “Latent Time” value (ferrets; Vomiting) was 30 ± 0 min. For the same compound, the “Number of Individuals Presenting Symptoms (Number of Individuals Presenting Symptoms/Number of Cases)” value (ferrets; Vomiting) was 0/6.

For Cc1ccc(/C=C2\C[C@@]3(O)[C@H]4Cc5ccc(O)c6c5[C@@]3(CCN4CC3CC3)[C@@H](O6)C2=O)cc1 [Compound 3], the Kp at 2 h [2] was 0.46, the “Appearance Frequency” value (ferrets; Nausea + Vomiting) was 0 ± 0 and the Duration (ferrets; Nausea + Vomiting) was 0 ± 0 min. The “Latent Time” value (ferrets; Nausea + Vomiting) was 30 ± 0 min, the “Number of Individuals Presenting Symptoms (Number of Individuals Presenting Symptoms/Number of Cases)” value (ferrets; Nausea + Vomiting) was 0/6## and the “Appearance Frequency” value (ferrets; Nausea) was 0 ± 0. The Duration (ferrets; Nausea) was 0 ± 0 min, the “Latent Time” value (ferrets; Nausea) was 30 ± 0 min and the “Number of Individuals Presenting Symptoms (Number of Individuals Presenting Symptoms/Number of Cases)” value (ferrets; Nausea) was 0/6##. For the same compound, the “Appearance Frequency” value (ferrets; Vomiting) was 0 ± 0, the Duration (ferrets; Vomiting) was 0 ± 0 min and the “Latent Time” value (ferrets; Vomiting) was 30 ± 0 min. For the same compound, the “Number of Individuals Presenting Symptoms (Number of Individuals Presenting Symptoms/Number of Cases)” value (ferrets; Vomiting) was 0/6.
